Laboratory results taken from ChEMBL document CHEMBL3352031, “Discovery of diamine-linked 17-aroylamido-17-demethoxygeldanamycins as potent Hsp90 inhibitors” (Eur J Med Chem, 2014).
Active and inactive are the calls of the source. The rule behind the calls is not given here.

Columns and labels:
Mus musculus [1] = assay: Hepatotoxicity in Kunming mouse assessed as serum aspartate aminotransferase level at 10 mg/kg, iv (reference value: 197.2 +/- 11.2 U/L); format: toxicity, organism-based; design: dose 10 mg/kg, route intravenous; settings: in vivo
Mus musculus [2] = assay: Hepatotoxicity in Kunming mouse assessed as serum alanine aminotransferase level at 10 mg/kg, iv (reference value: 60.7 +/- 6.9U/L); format: toxicity, organism-based; design: dose 10 mg/kg, route intravenous; settings: in vivo
MDA-MB-231 [3] = assay: Antitumor activity against human MDA-MB-231 cells xenografted in athymic nude mouse assessed as tumor growth inhibition at 10 mg/kg, iv dosed every 3 day for 15 consecutive days; format: functional; settings: MDA-MB-231, 72 h, read-out: TGI
MDA-MB-231 [4] = assay: Antitumor activity against human MDA-MB-231 cells xenografted in athymic nude mouse assessed as reduction in tumor weight at 10 mg/kg, iv dosed every 3 day for 15 consecutive days; format: functional
MDA-MB-231 [5] = assay: cells; settings: Homo sapiens, MDA-MB-231, 72 h
Description: Cytotoxicity against human MDA-MB-231 cells after 72 hrs by MTT assay

HUVEC = assay: cells; settings: Homo sapiens, 72 h
Description: Cytotoxicity against HUVEC cells after 72 hrs by MTT assay

cells [6] = settings: Homo sapiens, L02, 72 h
Description: Cytotoxicity against human HL7702 cells after 72 hrs by MTT assay

A549 = assay: cells; settings: Homo sapiens, A549, 72 h
Description: Cytotoxicity against human A549 cells after 72 hrs by MTT assay

HeLa = assay: cells; settings: Homo sapiens, 72 h
Description: Cytotoxicity against human HeLa cells after 72 hrs by MTT assay

A-431 = assay: cells; settings: Homo sapiens, A-431, 72 h
Description: Cytotoxicity against human A431 cells after 72 hrs by MTT assay

cells [7] = settings: Homo sapiens, BGC-823, 72 h
Description: Cytotoxicity against human BGC823 cells after 72 hrs by MTT assay

SW480 = assay: cells; settings: Homo sapiens, SW480, 72 h
Description: Cytotoxicity against human SW480 cells after 72 hrs by MTT assay

HepG2 = assay: cells; settings: Homo sapiens, HepG2, 72 h
Description: Cytotoxicity against human HepG2 cells after 72 hrs by MTT assay

[8] = target: Heat shock protein HSP 90-alpha (Homo sapiens, UniProt P07900); assay: Inhibition of GA-FITC binding to human recombinant Hsp90alpha incubated for 5 hrs by fluorescence polarization assay
[9] = target: T1, Heat shock protein HSP90 (Homo sapiens) (UniProt P07900+P08238); assay: Inhibition Hsp90 in human MDA-MB 231 cells assessed as reduction in CDK4 protein level at 0.5 and 5 uM incubated for 24 hrs by Western blot method; format: cell-based
[10] = target: T1, Heat shock protein HSP90 (Homo sapiens); assay: Inhibition Hsp90 in human MDA-MB 231 cells assessed as reduction in AKT protein level at 0.5 and 5 uM incubated for 24 hrs by Western blot method; format: cell-based
[11] = target: T1, Heat shock protein HSP90 (Homo sapiens); assay: Inhibition Hsp90 in human MDA-MB 231 cells assessed as reduction in EGFR protein level at 0.5 and 5 uM incubated for 24 hrs by Western blot method; format: cell-based
[12] = target: T1, Heat shock protein HSP90 (Homo sapiens); assay: Inhibition Hsp90 in human MDA-MB 231 cells assessed as reduction in HER2 protein level at 0.5 and 5 uM incubated for 24 hrs by Western blot method; format: cell-based
[13] = Safety index, ratio of IC50 for 17-AAG to IC50 for test compound against HUVEC cells after 72 hrs by MTT assay; format: ADME, cell-based; settings: human, read-out: Ratio IC50
[14] = Safety index, ratio of IC50 for GA to IC50 for test compound against HUVEC cells after 72 hrs by MTT assay; format: cell-based; settings: human, read-out: Ratio IC50
[15] = Safety index, ratio of IC50 for 17-AAG to IC50 for test compound against human HL7702 cells after 72 hrs by MTT assay; format: cell-based, L02; settings: read-out: Ratio IC50
[16] = Safety index, ratio of IC50 for GA to IC50 for test compound against human HL7702 cells after 72 hrs by MTT assay; format: ADME, cell-based, L02; settings: read-out: Ratio IC50

| SMILES | Activity (Mus musculus [1]) | Activity (Mus musculus [2]) | IC50 (MDA-MB-231 [5]) | further results |
| --- | --- | --- | --- | --- |
| C=CCNC1=C2C[C@@H](C)C[C@H](OC)[C@H](O)[C@@H](C)/C=C(\C)[C@H](OC(N)=O)[C@@H](OC)/C=C\C=C(/C)C(=O)NC(=CC1=O)C2=O [TANESPIMYCIN] | 237.4 U/L | 66.6 U/L | 280 nM | inhibition in vivo at 10 mg/kg (MDA-MB-231 [3]): 73%; T/C (MDA-MB-231 [4]): 28%; IC50 (HUVEC): 282 nM; IC50 (cells [6]): 99 nM; IC50 (A549): 81 nM; IC50 (HeLa): 128 nM; IC50 (A-431): 89 nM; IC50 (cells [7]): 847 nM; IC50 (SW480): 572 nM; IC50 (HepG2): 91 nM |
| COc1cc(/C=C/C(=O)NCCCCCCNC2=C3C[C@@H](C)C[C@H](OC)[C@H](O)[C@@H](C)/C=C(\C)[C@H](OC(N)=O)[C@@H](OC)/C=C\C=C(/C)C(=O)NC(=CC2=O)C3=O)ccc1O | 199.3 U/L | 72.7 U/L | 270 nM | IC50 [8]: 470 nM |
| COc1cc(/C=C/C(=O)NCCCCNC2=C3C[C@@H](C)C[C@H](OC)[C@H](O)[C@@H](C)/C=C(\C)[C@H](OC(N)=O)[C@@H](OC)/C=C\C=C(/C)C(=O)NC(=CC2=O)C3=O)ccc1O | 224.8 U/L | 75.3 U/L | 550 nM | IC50 [8]: 970 nM |
| COc1ccc(/C=C/C(=O)NCCCCCCNC2=C3C[C@@H](C)C[C@H](OC)[C@H](O)[C@@H](C)/C=C(\C)[C@H](OC(N)=O)[C@@H](OC)/C=C\C=C(/C)C(=O)NC(=CC2=O)C3=O)cc1OC | 193.4 U/L | 52.8 U/L | 300 nM | IC50 [8]: 410 nM |
| CO[C@H]1/C=C\C=C(/C)C(=O)NC2=CC(=O)C(NCCCCCCNC(=O)/C=C/c3ccccc3[N+](=O)[O-])=C(C[C@@H](C)C[C@H](OC)[C@H](O)[C@@H](C)/C=C(\C)[C@@H]1OC(N)=O)C2=O |  |  | 1610 nM |  |
| CO[C@H]1/C=C\C=C(/C)C(=O)NC2=CC(=O)C(NCCCCCCNC(=O)/C=C/c3cccc(Cl)c3)=C(C[C@@H](C)C[C@H](OC)[C@H](O)[C@@H](C)/C=C(\C)[C@@H]1OC(N)=O)C2=O |  |  | 5230 nM |  |
| CO[C@H]1/C=C\C=C(/C)C(=O)NC2=CC(=O)C(NCCCCNC(=O)/C=C/c3ccc(O)cc3)=C(C[C@@H](C)C[C@H](OC)[C@H](O)[C@@H](C)/C=C(\C)[C@@H]1OC(N)=O)C2=O |  |  | 1660 nM |  |
| CO[C@H]1/C=C\C=C(/C)C(=O)NC2=CC(=O)C(NCC3CCN(C(=O)c4cnc(C)c(C)n4)CC3)=C(C[C@@H](C)C[C@H](OC)[C@H](O)[C@@H](C)/C=C(\C)[C@@H]1OC(N)=O)C2=O |  |  | 2330 nM |  |
| CO[C@H]1/C=C\C=C(/C)C(=O)NC2=CC(=O)C(NCCCCCCNC(=O)/C=C/c3ccc(O)c(O)c3)=C(C[C@@H](C)C[C@H](OC)[C@H](O)[C@@H](C)/C=C(\C)[C@@H]1OC(N)=O)C2=O |  |  | 3930 nM |  |
| CO[C@H]1/C=C\C=C(/C)C(=O)NC2=CC(=O)C(NCC3CCN(C(=O)/C=C/c4ccc(O)cc4)CC3)=C(C[C@@H](C)C[C@H](OC)[C@H](O)[C@@H](C)/C=C(\C)[C@@H]1OC(N)=O)C2=O |  |  | 1680 nM |  |
| COc1ccccc1/C=C/C(=O)NCCCCCCNC1=C2C[C@@H](C)C[C@H](OC)[C@H](O)[C@@H](C)/C=C(\C)[C@H](OC(N)=O)[C@@H](OC)/C=C\C=C(/C)C(=O)NC(=CC1=O)C2=O |  |  | 3320 nM |  |
| COc1cc(/C=C/C(=O)NCCCCCCNC2=C3C[C@@H](C)C[C@H](OC)[C@H](O)[C@@H](C)/C=C(\C)[C@H](OC(N)=O)[C@@H](OC)/C=C\C=C(/C)C(=O)NC(=CC2=O)C3=O)cc(OC)c1OC | 181 U/L | 40.4 U/L | 190 nM | IC50 [8]: 290 nM; inhibition [9]: Active; inhibition [10]: Active; inhibition [11]: Active; inhibition [12]: Active; selectivity ratio at 72 h [13]: 5; selectivity ratio at 72 h [14]: 68; selectivity ratio at 72 h [15]: 50; selectivity ratio at 72 h [16]: 35; inhibition in vivo at 10 mg/kg (MDA-MB-231 [3]): 81%; T/C (MDA-MB-231 [4]): 21%; IC50 (HUVEC): 1350 nM; IC50 (cells [6]): 4950 nM; IC50 (A549): 278 nM; IC50 (HeLa): 284 nM; IC50 (A-431): 773 nM; IC50 (cells [7]): 527 nM; IC50 (SW480): 796 nM; IC50 (HepG2): 562 nM |
| CO[C@H]1/C=C\C=C(/C)C(=O)NC2=CC(=O)C(NCCCCCCNC(=O)c3ccncn3)=C(C[C@@H](C)C[C@H](OC)[C@H](O)[C@@H](C)/C=C(\C)[C@@H]1OC(N)=O)C2=O |  |  | 920 nM |  |
| CO[C@H]1/C=C\C=C(/C)C(=O)NC2=CC(=O)C(NCCCCCCNC(=O)/C=C/c3ccccc3)=C(C[C@@H](C)C[C@H](OC)[C@H](O)[C@@H](C)/C=C(\C)[C@@H]1OC(N)=O)C2=O |  |  | 5140 nM |  |
| CO[C@H]1/C=C\C=C(/C)C(=O)NC2=CC(=O)C(NCCCCNC(=O)c3ccncc3)=C(C[C@@H](C)C[C@H](OC)[C@H](O)[C@@H](C)/C=C(\C)[C@@H]1OC(N)=O)C2=O |  |  | 3450 nM |  |
| COc1cc(/C=C/C(=O)N2CCC(CNC3=C4C[C@@H](C)C[C@H](OC)[C@H](O)[C@@H](C)/C=C(\C)[C@H](OC(N)=O)[C@@H](OC)/C=C\C=C(/C)C(=O)NC(=CC3=O)C4=O)CC2)ccc1O | 260.8 U/L | 148.6 U/L | 940 nM | IC50 [8]: 1840 nM |
| COC1=C2C[C@@H](C)C[C@H](OC)[C@H](O)[C@@H](C)/C=C(\C)[C@H](OC(N)=O)[C@@H](OC)/C=C\C=C(/C)C(=O)NC(=CC1=O)C2=O [GELDANAMYCIN] | 317.2 U/L | 273 U/L |  |  |
| COc1cccc(/C=C/C(=O)NCCCCCCNC2=C3C[C@@H](C)C[C@H](OC)[C@H](O)[C@@H](C)/C=C(\C)[C@H](OC(N)=O)[C@@H](OC)/C=C\C=C(/C)C(=O)NC(=CC2=O)C3=O)c1OC |  |  | 6030 nM |  |
| CO[C@H]1/C=C\C=C(/C)C(=O)NC2=CC(=O)C(NCCCCCCNC(=O)c3nc(C)c(C)nc3C)=C(C[C@@H](C)C[C@H](OC)[C@H](O)[C@@H](C)/C=C(\C)[C@@H]1OC(N)=O)C2=O |  |  | 3120 nM |  |
| CO[C@H]1/C=C\C=C(/C)C(=O)NC2=CC(=O)C(NCCCCCCNC(=O)c3ccc(Cl)cc3)=C(C[C@@H](C)C[C@H](OC)[C@H](O)[C@@H](C)/C=C(\C)[C@@H]1OC(N)=O)C2=O |  |  | 4100 nM |  |
| COc1ccc(/C=C/C(=O)NCCCCCCNC2=C3C[C@@H](C)C[C@H](OC)[C@H](O)[C@@H](C)/C=C(\C)[C@H](OC(N)=O)[C@@H](OC)/C=C\C=C(/C)C(=O)NC(=CC2=O)C3=O)cc1 |  |  | 4540 nM |  |
| CO[C@H]1/C=C\C=C(/C)C(=O)NC2=CC(=O)C(NCCCCCCNC(=O)c3ccncc3)=C(C[C@@H](C)C[C@H](OC)[C@H](O)[C@@H](C)/C=C(\C)[C@@H]1OC(N)=O)C2=O |  |  | 890 nM |  |
